Test results as given in US20250340527A1, “RIPK2 AND NOD INHIBITORS” (Trustees of Tufts College, priority 2022, published 2025).
Like-named read-outs stand apart in the source and are kept apart here.

Legend:
[1] = test system: NOD2 cellular signaling in THP1 cells; experiment: NOD2 signaling assay #2 (THP1 NFkB-SEAP reporter, L18-MDP stimulated); assay type: cell-based; settings: Homo sapiens, THP-1, 10 ng/ml L18-MDP
Protocol: THP1 cells expressing NFkB-SAEP reporter (Invivogen) are seeded into 96 well clear plates at 5×10^4 cells per well in 100 μL of RPM11640 media supplemented with 10% FBS and 1% antibiotic-antimycotic mix. Cells are treated with the inhibitors, diluted in DMSO ([…] per well) for 15 min in 5% CO2 tissue culture incubator at 37° C. After that, cells are stimulated by the addition of 10 ng/ml L18-MDP (Invivogen). Cells are incubated in 5% CO2 tissue culture incubator at 37° C. for 8 h and absorbance, corresponding to the SEAP in the media, is determined in Wallac3V plate reader (Perkin Elmer). Inhibition, %=(1−((sample signal-unstimulated and DMSO treated cells)/(L18-MDP stimulated and DMSO treated cells−unstimulated and DMSO treated cells)))*100. IC50 values are calculated based on a dose range of inhibitor concentrations using non-linear regression in GraphPad Prism software.

[2] = Pharmacokinetic analysis in mice; assay type: in vivo, C57BL/6 mice
Description: The pharmacokinetic properties of SS-1-64 are summarized in the following table along with a comparator RIPK2/NOD inhibitor CSLP37, N-(5-(2-Amino-5-(4-(piperazin-1-yl)phenyl)pyridin-3-yl)-3-fluoro-2-methoxyphenyl)propane-1-sulfonamide (U.S. Pat. No. 11,135,298 to Cuny et al.).

[3] = target: Recombinant RIPK2 protein (Homo sapiens, UniProt O43353); experiment: RIPK2 enzyme assay (ADP-Glo); assay type: biochemical; settings: NI: no inhibition observed
Sequence of Recombinant RIPK2 protein (O43353 whole entry, species assumed): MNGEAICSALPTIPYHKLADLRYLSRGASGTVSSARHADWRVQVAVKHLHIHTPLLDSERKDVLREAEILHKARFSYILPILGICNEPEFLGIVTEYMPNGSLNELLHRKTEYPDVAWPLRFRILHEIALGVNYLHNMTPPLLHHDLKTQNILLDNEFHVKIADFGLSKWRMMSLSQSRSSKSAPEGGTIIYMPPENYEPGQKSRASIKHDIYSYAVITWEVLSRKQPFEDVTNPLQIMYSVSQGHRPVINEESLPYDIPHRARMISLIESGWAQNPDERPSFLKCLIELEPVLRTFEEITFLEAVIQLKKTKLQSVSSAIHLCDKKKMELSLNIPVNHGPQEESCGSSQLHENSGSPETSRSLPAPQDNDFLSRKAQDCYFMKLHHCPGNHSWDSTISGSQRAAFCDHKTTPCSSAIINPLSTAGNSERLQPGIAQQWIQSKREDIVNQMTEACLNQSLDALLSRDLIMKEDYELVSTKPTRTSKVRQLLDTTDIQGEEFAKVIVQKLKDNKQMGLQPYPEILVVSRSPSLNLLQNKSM
Protocol: Recombinant RIPK2 protein (20 ng per reaction) is diluted in the reaction buffer consisting of 40 mM Tris (pH 7.5); 20 mM MgCl2; 0.1 mg/ml BSA; 50 μM DTT. Diluted protein is added to low volume white 384 well plates (2 μL/well). Inhibitors are diluted in reaction buffer (final 25% DMSO), 1 μL is added to each well and incubated 5 min at room temperature. Reactions are initiated by the addition of 2 μL of 100 μM ATP and 1 mg/ml RS repeat peptide (SignalChem) in the reaction buffer. Plates are sealed with plastic coverslips and incubated at room temperature for 2 h. Reactions are stopped by the addition of 5 μL of ADP-Glo reagent (Promega) and ADP generation reaction is performed for 40 min at room temperature. Luminescence signal is generated by the addition of 10 μL of Kinase detection reagent (Promega) for 30 min at room temperature. Luminescence signals are determined using appropriate luminescence plate-reader (typical integration time 0.3-1 sec). To calculate percent inhibition, average background signal is subtracted from test well and maximal signal wells. Inhibition, %=(1−(test signal/maximal signal))*100. The percent inhibition at a specified concentration is determined or IC50 values are calculated based on a dose range of inhibitor concentrations using non-linear regression in GraphPad Prism software.

[4] = test system: HEK-Blue cells expressing human NOD2; experiment: NOD2 signaling assay #1 (HEK-Blue NFkB-SEAP reporter, L18-MDP stimulated); assay type: cell-based; settings: 1 ng/ml L18-MDP, read-out: IC50 (nM) HEKBlue
Protocol: HEK-Blue cells expressing human NOD2 and NFkB-SAEP reporter (Invivogen) are seeded into 96 well clear plates at 7.5×10^3 cells per well in 100 μL of DMEM media supplemented with 10% FBS and 1% antibiotic-antimycotic mix. Cells are allowed to attach for 48 h in 5% CO2 tissue culture incubator at 37° C. On the morning of the experiment, media in the wells is replaced with 100 μL of HEK-Blue detection media (Invivogen). Cells are treated with the inhibitors, diluted in DMSO (0.5 μL per well) for 15 min in 5% CO2 tissue culture incubator at 37° C. After that, cells are stimulated by the addition of 1 ng/ml L18-MDP (Invivogen). Cells are incubated in 5% CO2 tissue culture incubator at 37° C. for 8 h and absorbance, corresponding to the SEAP in the media, is determined in Wallac3V plate reader (Perkin Elmer). Inhibition, %=(1−((sample signal-unstimulated and DMSO treated cells)/(L18-MDP stimulated and DMSO treated cells−unstimulated and DMSO treated cells)))*100. IC50 values are calculated based on a dose range of inhibitor concentrations using non-linear regression in GraphPad Prism software.

[5] = single dose 10 mg/kg intraperitoneally, female C57BL/6 mice
[6] = female, C57BL/6, mouse, in vivo, ip, 10 mg/kg

IC50 [1] [nM]	IC50 [3] [nM]	SMILES	IC50 [4] [nM]	other results
	11	CCCS(=O)(=O)Nc1cc(-c2cc(-c3ccc(C4CCNCC4)cc3)cnc2N)cc(F)c1OC [SS-1-14, N-(5-(2-amino-5-(4-(piperidin-4-yl)phenyl)pyridin-3-yl)-3-fluoro-2-methoxyphenyl)propane-1-sulfonamide]	0.06	
		CCCS(=O)(=O)Nc1cc(-c2cc(Br)cnc2N)cc(F)c1OC [SS-1-5, N-(5-(2-amino-5-bromopyridin-3-yl)-3-fluoro-2-methoxyphenyl)propane-1-sulfonamide]	57	
	137	CCCS(=O)(=O)N(C)c1cc(-c2cc(-c3ccc(N4CCNCC4)cc3)cnc2N)cc(F)c1OC [SS-1-39, N-(5-(2-amino-5-(4-(piperazin-1-yl)phenyl)pyridin-3-yl)-3-fluoro-2-methoxyphenyl)-N-methylpropane-1-sulfonamide]	1.2	
	29	COc1c(F)cc(-c2cc(-c3ccc(N4CCNCC4)cc3)cnc2N)cc1NS(C)(=O)=O [SS-1-33, N-(5-(2-amino-5-(4-(piperazin-1-yl)phenyl)pyridin-3-yl)-3-fluoro-2-methoxyphenyl)methanesulfonamide]	0.17	
	10	CCCS(=O)(=O)Nc1cc(-c2cc(-c3ccc(N4CCN(C)CC4)cc3)cnc2N)cc(F)c1OC [SS-1-18, N-(5-(2-amino-5-(4-(4-methylpiperazin-1-yl)phenyl)pyridin-3-yl)-3-fluoro-2-methoxyphenyl)propane-1-sulfonamide]	0.03	
0.1		COc1cc(-c2cc(-c3ccc(C4CCN(C)CC4)cc3)cnc2N)cc(NC(C)=O)c1OC [SS-2-41, N-(5-(2-amino-5-(4-(1-methylpiperidin-4-yl)phenyl)pyridin-3-yl)-2,3-dimethoxyphenyl)acetamide]		
		CCCS(=O)(=O)Nc1cc(-c2cc(-c3ccc(N4CCNCC4)cc3)cnc2N)cc(F)c1OC [CSLP37, N-(5-(2-Amino-5-(4-(piperazin-1-yl)phenyl)pyridin-3-yl)-3-fluoro-2-methoxyphenyl)propane-1-sulfonamide, reference compound]		Cl (clearance) [2, 6]: 59.66 ± 15.09 mL/min/kg; Cmax [2, 6]: 550 ± 200 nM; Tmax [2, 6]: 1.2 ± 0.4472 h; V (volume of distribution) [2, 6]: 24.04 ± 6.15 L/kg; t1/2 (plasma elimination half-life) [2, 6]: 4.66 ± 0.24 h; AUC ([2]; mouse, in vivo, ip, 10 mg/kg): 2920 ng·h/mL
1.2		COc1c(F)cc(-c2cc(-c3ccc(C4CCN(C)CC4)cc3)cnc2N)cc1N(C)S(C)(=O)=O [SS-1-50, N-(5-(2-amino-5-(4-(1-methylpiperidin-4-yl)phenyl)pyridin-3-yl)-3-fluoro-2-methoxyphenyl)-N-methylmethanesulfonamide]		
		CCCS(=O)(=O)Nc1cc(-c2cc(-c3ccc(N4CCNCC4)cc3)cnc2NC)cc(F)c1OC [SS-1-10, N-(3-fluoro-2-methoxy-5-(2-(methylamino)-5-(4-(piperazin-1-yl)phenyl)pyridin-3-yl)phenyl)propane-1-sulfonamide]	16	
	31	CCCS(=O)(=O)Nc1cc(-c2cc(-c3ccc(C4CCN(C)CC4)cc3)cnc2N)cc(F)c1OC [SS-1-38, N-(5-(2-amino-5-(4-(1-methylpiperidin-4-yl)phenyl)pyridin-3-yl)-3-fluoro-2-methoxyphenyl)propane-1-sulfonamide]	0.07	
0.1		COc1c(F)cc(-c2cc(-c3ccc(C4CCN(C)CC4)cc3)cnc2N)cc1NS(C)(=O)=O [SS-1-43, N-(5-(2-amino-5-(4-(1-methylpiperidin-4-yl)phenyl)pyridin-3-yl)-3-fluoro-2-methoxyphenyl)methanesulfonamide]		
20		CCCS(=O)(=O)Nc1cc(-c2cc(C#CCN3CCN(C)CC3)cnc2N)cc(F)c1OC [SS-1-66, N-(5-(2-amino-5-(3-(4-methylpiperazin-1-yl)prop-1-yn-1-yl)pyridin-3-yl)-3-fluoro-2-methoxyphenyl)propane-1-sulfonamide]		

SMILES	IC50 [1] [nM]	IC50 [3] [nM]	IC50 [4] [nM]	other results
COc1cc(-c2cc(-c3ccc(C4CCN(C)CC4)cc3)cnc2N)cc(NS(C)(=O)=O)c1OC [SS-1-64, N-(5-(2-amino-5-(4-(1-methylpiperidin-4-yl)phenyl)pyridin-3-yl)-2,3-dimethoxyphenyl)methanesulfonamide]	0.014			Cmax ([2]; mouse, in vivo, ip, single dose 10 mg/kg intraperitoneally, 6% Captisol in water, female C57BL/6 mice, read-out: maximum plasma concentration (Cmax)): 1630 ± 1200 nM; Tmax ([2]; mouse, in vivo, ip, single dose 10 mg/kg intraperitoneally, female C57BL/6 mice, read-out: Tmax): 1 h; half-life ([2]; mouse, in vivo, ip, single dose 10 mg/kg intraperitoneally, female C57BL/6 mice, read-out: t1/2 (plasma elimination half-life) (converted)): 7.88 ± 0.28 h; Cl (clearance) [2, 5]: 53.56 ± 5.68 mL/min/kg; V (volume of distribution) [2, 5]: 36.45 ± 2.61 L/kg; Tmax ([2]; single dose 10 mg/kg intraperitoneally, female C57BL/6 mice, plasma): 1 ± 0 h
